Experimental data published in US20230183193A1, “4-DIFLUOROMETHYL BENZOYL AMIDES WITH HERBICIDAL ACTION” (BAYER CROPSCIENCE AKTIENGESELLSCHAFT, priority 2017, published 2023).

Key:
Assay type in all cases: in vivo
[1] = system: Abutilon theophrasti; assay: Post-emergence herbicidal action, ABUTH; conditions: 80 g/ha, Table D
Procedure, shortened: (§1)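 Post-emergence spray; one-leaf stage (2–3 wk after sowing), sandy loam, greenhouse. WP/EC in water, 600 to […], +0.2% wetting agent. Visual % damage vs untreated at ~3 wk; 100% = plants dead.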

[2] = system: Amaranthus retroflexus; assay: Post-emergence herbicidal action, AMARE; conditions: 80 g/ha, Table D
Procedure, shortened: as §1

[3] = system: Alopecurus myosuroides; assay: Pre-emergence herbicidal action, ALOMY; conditions: dosage 320 g/ha, scored visually after 3 weeks vs untreated controls
Procedure, shortened: (§2)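 Weed seeds were laid out in sandy loam and covered with soil, then the soil surface was treated with an aqueous suspension or emulsion of the formulated compound containing 0.2% wetting agent. Pots stayed in the greenhouse for 3 weeks before damage was rated visually against untreated plants.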

[4] = system: Alopecurus myosuroides; assay: Post-emergence herbicidal action, ALOMY; conditions: 80 g/ha, Table C
Description: (§3) Seeds of monocotyledonous and dicotyledonous weed and crop plants are laid out in sandy loam soil in wood-fiber pots, covered with soil and cultivated in a greenhouse under good growth conditions. 2 to 3 weeks after sowing, the test plants are treated at the one-leaf stage. The compounds of the invention, formulated in the form of wettable powders (WP) or as emulsion concentrates (EC), are then sprayed onto the green parts of the plants in the form of an aqueous suspension or emulsion at a water application rate equating to […], with addition of 0.2% wetting agent. After the test plants have been left to stand in the greenhouse under optimal growth conditions for about 3 weeks, the action of the preparations is assessed visually in comparison to untreated controls (herbicidal action in percent (%): 100% activity=the plants have died, 0% activity=like control plants). […] At the same time, inventive compounds leave Gramineae crops such as barley, wheat, rye, millet/sorghum, corn or rice virtually undamaged when applied post-emergence, even at high active compound dosages. In addition, some substances are also harmless to dicotyledonous crops such as soya, cotton, oilseed rape, sugar beet or potatoes. Some of the compounds according to the invention have high selectivity and are therefore suitable for controlling unwanted vegetation in agricultural crops by the post-emergence method. The data of Tables C and D below illustrate, in an exemplary manner, the […] herbicidal action of the compounds according to the invention, the herbicidal activity being stated in percent.
(§4) For comparison, the herbicidal activity of numerous compounds according to the invention was tested with the structurally closest compounds known from the documents WO 2011/035874, WO 2012/028579 and WO 2012/126932, by the pre- and post-emergence method.

[5] = system: Amaranthus retroflexus; assay: Pre-emergence herbicidal action, AMARE; conditions: dosage 320 g/ha, scored visually after 3 weeks vs untreated controls
Procedure, shortened: as §2

[6] = system: ECHCG; assay: Post-emergence herbicidal action, ECHCG; conditions: 80 g/ha, Table C
Procedure, shortened: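 Weed and crop plants grown in sandy loam in the greenhouse, treated at the one-leaf stage 2–3 weeks after sowing. Damage scored visually after about 3 weeks vs untreated controls (0% = control, 100% = dead).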

[7] = system: Viola tricolor; assay: Pre-emergence herbicidal action, VIOTR; conditions: dosage 320 g/ha, scored visually after 3 weeks vs untreated controls
Procedure, shortened: as §2

[8] = system: Avena fatua; assay: Post-emergence herbicidal action, AVEFA; conditions: 80 g/ha, Table C
Description: as §3, §4

[9] = system: Stellaria media; assay: Pre-emergence herbicidal action, STEME; conditions: dosage 320 g/ha, scored visually after 3 weeks vs untreated controls
Procedure, shortened: as §2

[10] = system: Viola tricolor; assay: Post-emergence herbicidal action, VIOTR; conditions: 80 g/ha, Table D
Procedure, shortened: as §1

[11] = system: Abutilon theophrasti; assay: Pre-emergence herbicidal action, ABUTH; conditions: dosage 320 g/ha, scored visually after 3 weeks vs untreated controls
Procedure, shortened: as §2

[12] = system: Cyperus serotinus; assay: Pre-emergence herbicidal action, CYPES; conditions: dosage 320 g/ha, scored visually after 3 weeks vs untreated controls
Procedure, shortened: as §2

[13] = system: Setaria viridis; assay: Pre-emergence herbicidal action, SETVI; conditions: dosage 320 g/ha, scored visually after 3 weeks vs untreated controls
Procedure, shortened: as §2

[14] = system: Pharbitis purpureum; assay: Post-emergence herbicidal action, PHBPU; conditions: 80 g/ha, Table D
Procedure, shortened: as §1

[15] = system: Matricaria inodora; assay: Pre-emergence herbicidal action, MATIN; conditions: dosage 320 g/ha, scored visually after 3 weeks vs untreated controls
Procedure, shortened: as §2

[16] = system: Setaria viridis; assay: Post-emergence herbicidal action, SETVI; conditions: 80 g/ha, Table C
Procedure, shortened: as §1

[17] = system: Stellaria media; assay: Post-emergence herbicidal action, STEME; conditions: 80 g/ha, Table D
Procedure, shortened: as §1

[18] = system: Avena fatua; assay: Pre-emergence herbicidal action, AVEFA; conditions: dosage 320 g/ha, scored visually after 3 weeks vs untreated controls
Procedure, shortened: as §2

CCSc1c(C(F)F)ccc(C(=O)Nc2nnnn2C)c1C [Example 1-4]
80%: herbicidal activity CYPES [12]
100%: herbicidal activity ABUTH [1] | herbicidal activity AMARE [2] | herbicidal activity ALOMY [3] | herbicidal activity AMARE [5] | Herbicidal activity ECHCG [6] | herbicidal activity VIOTR [7] | herbicidal activity AVEFA [8] | Herbicidal activity STEME [9] | herbicidal activity VIOTR [10] | herbicidal activity ABUTH [11] | herbicidal activity SETVI [13] | Herbicidal activity PHBPU [14] | herbicidal activity MATIN [15] | herbicidal activity SETVI [16] | Herbicidal activity STEME [17] | herbicidal activity AVEFA [18]
90%: herbicidal activity ALOMY [4]

CC[S+]([O-])c1c(C(F)F)ccc(C(=O)Nc2nnnn2C)c1C (centres unmarked) [Example 1-5]
100%: herbicidal activity AMARE [2] | herbicidal activity ALOMY [3] | herbicidal activity ALOMY [4] | herbicidal activity AMARE [5] | Herbicidal activity ECHCG [6] | herbicidal activity VIOTR [7] | herbicidal activity AVEFA [8] | herbicidal activity VIOTR [10] | herbicidal activity ABUTH [11] | herbicidal activity CYPES [12] | herbicidal activity SETVI [13] | Herbicidal activity PHBPU [14] | herbicidal activity MATIN [15] | herbicidal activity SETVI [16] | Herbicidal activity STEME [17] | herbicidal activity AVEFA [18]
90%: herbicidal activity ABUTH [1] | Herbicidal activity STEME [9]

CCS(=O)(=O)c1c(C(F)F)ccc(C(=O)Nc2nnnn2C)c1C [Example 1-6]
90%: herbicidal activity ABUTH [1]
100%: herbicidal activity AMARE [2] | herbicidal activity ALOMY [3] | herbicidal activity ALOMY [4] | herbicidal activity AMARE [5] | Herbicidal activity ECHCG [6] | herbicidal activity VIOTR [7] | herbicidal activity AVEFA [8] | Herbicidal activity STEME [9] | herbicidal activity VIOTR [10] | herbicidal activity ABUTH [11] | herbicidal activity CYPES [12] | herbicidal activity SETVI [13] | Herbicidal activity PHBPU [14] | herbicidal activity MATIN [15] | herbicidal activity SETVI [16] | Herbicidal activity STEME [17] | herbicidal activity AVEFA [18]

CCc1c(C(=O)Nc2nnnn2C)ccc(C(F)F)c1SC [Example 1-13]
90%: herbicidal activity ALOMY [4] | Herbicidal activity ECHCG [6] | herbicidal activity SETVI [16]
100%: herbicidal activity ABUTH [1] | herbicidal activity AMARE [2] | herbicidal activity ALOMY [3] | herbicidal activity AMARE [5] | herbicidal activity VIOTR [7] | herbicidal activity AVEFA [8] | Herbicidal activity STEME [9] | herbicidal activity VIOTR [10] | herbicidal activity ABUTH [11] | herbicidal activity CYPES [12] | herbicidal activity SETVI [13] | Herbicidal activity PHBPU [14] | herbicidal activity MATIN [15] | Herbicidal activity STEME [17] | herbicidal activity AVEFA [18]

CCCn1nnnc1NC(=O)c1ccc(C(F)F)c(SC)c1C [Example 3-1]
100%: herbicidal activity ABUTH [1] | herbicidal activity AMARE [2] | herbicidal activity ALOMY [3] | herbicidal activity AMARE [5] | Herbicidal activity ECHCG [6] | herbicidal activity VIOTR [7] | herbicidal activity AVEFA [8] | Herbicidal activity STEME [9] | herbicidal activity VIOTR [10] | herbicidal activity ABUTH [11] | herbicidal activity SETVI [13] | herbicidal activity MATIN [15] | herbicidal activity SETVI [16] | Herbicidal activity STEME [17] | herbicidal activity AVEFA [18]
90%: herbicidal activity ALOMY [4] | Herbicidal activity PHBPU [14]

CCCn1nnnc1NC(=O)c1ccc(C(F)F)c(S(C)(=O)=O)c1C [Example 3-3]
80%: herbicidal activity AMARE [2]
90%: herbicidal activity ABUTH [1] | herbicidal activity ALOMY [3] | herbicidal activity ALOMY [4] | Herbicidal activity ECHCG [6] | herbicidal activity AVEFA [8] | herbicidal activity CYPES [12] | Herbicidal activity PHBPU [14] | herbicidal activity SETVI [16] | Herbicidal activity STEME [17]
100%: herbicidal activity AMARE [5] | herbicidal activity VIOTR [7] | herbicidal activity VIOTR [10] | herbicidal activity ABUTH [11] | herbicidal activity SETVI [13] | herbicidal activity MATIN [15] | herbicidal activity AVEFA [18]

CCSc1c(C(F)F)ccc(C(=O)Nc2ncnn2C)c1Br [Example 4-64]
100%: herbicidal activity ABUTH [1] | herbicidal activity AMARE [2] | herbicidal activity ALOMY [4] | herbicidal activity AMARE [5] | Herbicidal activity ECHCG [6] | herbicidal activity VIOTR [7] | herbicidal activity AVEFA [8] | Herbicidal activity STEME [9] | herbicidal activity VIOTR [10] | herbicidal activity ABUTH [11] | herbicidal activity SETVI [13] | Herbicidal activity PHBPU [14] | herbicidal activity MATIN [15] | herbicidal activity SETVI [16] | Herbicidal activity STEME [17] | herbicidal activity AVEFA [18]
90%: herbicidal activity ALOMY [3]

CCS(=O)(=O)c1c(C(F)F)ccc(C(=O)Nc2nnc(C)o2)c1Br [Example 7-64]
100%: herbicidal activity ABUTH [1] | herbicidal activity AMARE [2] | herbicidal activity ALOMY [3] | Herbicidal activity ECHCG [6] | herbicidal activity VIOTR [7] | herbicidal activity AVEFA [8] | Herbicidal activity STEME [9] | herbicidal activity ABUTH [11] | herbicidal activity CYPES [12] | herbicidal activity SETVI [13] | Herbicidal activity PHBPU [14] | herbicidal activity MATIN [15] | herbicidal activity SETVI [16] | herbicidal activity AVEFA [18]
90%: herbicidal activity ALOMY [4] | herbicidal activity VIOTR [10] | Herbicidal activity STEME [17]
